Assay results from PMC11261779, “Structural studies of WDR5 in complex with MBD3C WIN motif reveal a unique binding mode” (The Journal of Biological Chemistry, 2024).
No end group written: not given here.

How the values were obtained:
[1] = tested on: WDR5; conditions: cited from earlier work
Excerpt: (§1) WDR5, a well-established core scaffolding protein found in histone methyltransferase complexes MLL1-4 and SET1A/B ([1], [2]), was initially characterized as an epigenetic histone “writer” to recognize histone H3 lysine 4 (H3K4) and is essential for H3K4 di- and tri-methylation (H3K4me2 and H3K4me3) to activate gene transcription ([1], [3], [4], [5], [6]). Moreover, the interaction between WDR5 and the H3 tail could be regulated by the methylation of H3 arginine 2 (H3R2) ([7], [8]). It is also present in the nonspecific lethal (NSL) complex of histone acetyltransferase, where it is responsible ...

[2] = tested on: patient-derived mouse models; conditions: cited from earlier work
Excerpt: as §1

[3] = molecular target: T1, WDR5^D107R (Mus musculus, UniProt P61965, D107R); experiment: ITC of MBD3C peptide titrated into WDR5 D107R mutant; conditions: 20 °C, 200 mM NaCl, pH 7.5, WDR5 D107R, N.D. = not detectable binding
T1 construct: the mouse WDR5 seven tandem WD-40 repeats (residues 24–334); GST (N, cleaved yes); made in house; host or cells: Escherichia coli BL21 (DE3)
Excerpt: To validate the importance of the aforementioned residues in the interactions between MBD3C and WDR5, we conducted mutations on Arg43, Arg45, and Phe47 residues within MBD3C and the corresponding residues within WDR5. […] In addition, MBD3C carrying R43K mutation weakens the interaction with WDR5 by ∼9.1-fold (Figs. 2D, S2, and Table 2). […] The Arg-Asp specific interaction was also observed in a previously determined WDR5-KANSL1 complex, thereby contributing to the high binding affinity of KANSL1 for WDR5 ([9]). […] In comparison to the wild-type MBD3C, the dissociation constants were approximately 4-fold and 6.8-fold higher when Phe47 was mutated to alanine and histidine (Figs. 2D, S2, and Table 2), respectively.
The DNA fragment encoding the mouse WDR5 seven tandem WD-40 repeats (residues 24–334) was amplified via PCR from the human brain and bone marrow cDNA library and cloned into the pGEX-4T1 vector modified with an N-terminal GST tag and a TEV cleavage site (ENLYFQ/GSHM) (where ‘/’ indicates the cleavage site). All WDR5 mutants were generated using a MutanBEST kit and subsequently confirmed through DNA sequencing. […]
(§2) ITC assays were performed on a Microcal PEAQ-ITC instrument (Malvern Panalytical) at 20 °C. Proteins were quantified by absorbance at 280 nm and diluted to 44.5 μM with Buffer D. The peptides were adjusted to 0.5 to 1.0 mM with the same buffer. […]

[4] = molecular target: T2, WDR5 (Mus musculus, UniProt P61965); experiment: ITC of MBD3C peptides titrated into wild-type WDR5 (residues 24–334); conditions: MicroCal PEAQ-ITC, 20 °C, 20 mM Tris-HCl, 200 mM NaCl, pH 7.5, WDR5 WT 44.5 μM, peptide 0.5–1.0 mM, single binding site model, triplicate, N.D. = not detectable binding
T2 construct: to titrate the truncated WDR5 construct (residues 24–334); GST (N, cleaved yes); made in house; host or cells: Escherichia coli BL21 (DE3)
Excerpt: To validate their findings and determine the dissociation constant (Kd) between WDR5 and MBD3C40-51 more accurately, we performed ITC experiments using a synthetic MBD3C peptide spanning 40 to 51 to titrate the truncated WDR5 construct (residues 24–334).
The DNA fragment encoding the mouse WDR5 seven tandem WD-40 repeats (residues 24–334) was amplified via PCR from the human brain and bone marrow cDNA library and cloned into the pGEX-4T1 vector modified with an N-terminal GST tag and a TEV cleavage site (ENLYFQ/GSHM) (where ‘/’ indicates the cleavage site). All WDR5 mutants were generated using a MutanBEST kit and subsequently confirmed through DNA sequencing. The proteins were expressed in Escherichia coli BL21 (DE3) cells (Novagen) that were cultured in Luria–Bertani medium at 37 °C. The recombinant proteins were induced by 0.2 mM isopropyl β-D-1-thiogalactopyranoside (IPTG) upon reaching an optical density at 600 nm (OD600 nm) 0.8, then transferred to 16 °C and incubated for 18 h. Cells were harvested by centrifugation and resuspended in Buffer A (20 mM Tris-HCl, 500 mM NaCl, pH 8.0), supplemented with DNAaseI (10U) and protein protease inhibitor (Roche, 1 tablet dissolved in 1 ml sterile water), and then lysed by a high-pressure cell homogenizer. The cell debris was removed by centrifugation, and the supernatant was subjected to a 6-h incubation at 4 °C with glutathione Sepharose resins (GE Healthcare) The resins bound by GST-tagged proteins were resuspended in 20 ml Buffer A. Then, the GST tag was removed through digestion with ∼1 mg TEV protease (purified in-house) at 4 °C overnight. […]
as §2

| Kd [4] | Molecule | other results |
| --- | --- | --- |
| no binding was observed | GAAECRVFSPQG [MBD3C^R43E, MBD3C 40–51 peptide with R43E mutation] | – |
| no binding was observed | GAADCRVFSPQG [MBD3C^R43D, MBD3C 40–51 peptide with R43D mutation] | – |

More lines, now with the values behind:

| Molecule | Kd [4] | other results |
| --- | --- | --- |
| Cc1ncsc1-c1ccc([C@H](C)NC(=O)[C@@H]2C[C@@H](O)CN2C(=O)[C@@H](NC(=O)CNC(=O)c2ccc(F)c(-c3ccc(N4C[C@@H](C)N(C)[C@@H](C)C4)c(NC(=O)c4c[nH]c(=O)cc4C(F)(F)F)c3)c2)C(C)(C)C)cc1 [MS67] | – | reduction of WDR5 levels in cells [1]: effectively reduced WDR5 levels; tumor growth [2]: suppressed tumor growth |
| GAARCRVFSPQG [MBD3C] | – | Kd [3]: No interaction was observed |
| GAAACRVFSPQG [MBD3C^R43A, MBD3C 40–51 peptide with R43A mutation] | no binding was observed | – |
